These results are taken from patent publication US5206255A, “Heterocyclic compound” (Mitsubishi Kasei Corporation, priority 1989, dated 1993).

Like-named read-outs stand apart in the source and are kept apart here.

For one data set, the target named is T1, lipoxygenase (Rattus norvegicus, UniProt P12527).
T1 construct: abdominal cells of Wister rat (7 to 12 week-age); endogenous in cells; host or cells: abdominal (peritoneal) cells of Wister [Wistar] rat
T1 sequence (P12527 1-673): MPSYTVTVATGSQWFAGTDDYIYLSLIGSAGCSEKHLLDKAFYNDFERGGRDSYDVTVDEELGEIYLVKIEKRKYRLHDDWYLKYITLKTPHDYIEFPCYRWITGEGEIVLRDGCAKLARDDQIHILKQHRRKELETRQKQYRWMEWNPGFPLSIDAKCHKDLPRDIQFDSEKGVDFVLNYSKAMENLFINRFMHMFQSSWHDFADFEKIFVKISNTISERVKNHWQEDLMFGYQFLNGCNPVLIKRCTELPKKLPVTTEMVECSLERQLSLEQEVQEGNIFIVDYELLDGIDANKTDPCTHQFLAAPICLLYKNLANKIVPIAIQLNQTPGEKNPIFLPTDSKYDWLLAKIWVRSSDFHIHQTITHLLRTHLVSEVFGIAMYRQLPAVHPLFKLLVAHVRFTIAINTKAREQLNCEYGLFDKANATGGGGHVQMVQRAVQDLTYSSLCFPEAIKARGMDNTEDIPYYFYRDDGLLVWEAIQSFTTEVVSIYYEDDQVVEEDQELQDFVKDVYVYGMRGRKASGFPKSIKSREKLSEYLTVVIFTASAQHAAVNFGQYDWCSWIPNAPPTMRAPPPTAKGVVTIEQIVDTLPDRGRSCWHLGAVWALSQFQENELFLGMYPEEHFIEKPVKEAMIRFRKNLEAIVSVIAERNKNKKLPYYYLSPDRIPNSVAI
Briefly: Inhibition activity to lipoxygenase (leukotriene production by rat abdominal cells, bioassay on guinea pig ileum). Type of data set: cell-based, Wister rat. To be noted: read-out: Inhibition intensity; for inhibition at 1 µM: 10^-6 M (final concentration). Here is the method:
In 0.9 ml of Hunks' solution, were suspended 2×10^6 of abdominal cells of Wister rat (7 to 12 week-age) and incubated at 37° C. for 15 min after adding 10^-7 M of arachidonic acid and the compound of the present invention dissolved in ethanol, or only 10^-7 M of arachidonic acid and ethanol as a control. Further, 100 μl of 5 μg/μl of calcium inonophore A-23187 was added and the incubation was further continued at 37° C. for 15 min to produce leukotrienes. After cooling the reaction mixture with ice for 20 min to terminate the reaction, the reaction mixture was subjected to centrifugation at 4° C. for 10 min at 3000 rpm. The inhibition activity to lipoxygenase of the compound according to the present invention was measured by bioassay of leukotrienes contained in the resultant supernatants by using a Magunus' device while taking the contraction reaction of ileum extirpated from guinea pig as the indication. The inhibition rate of the compound according to the present invention was calculated based on the ratio of the suppression due to the compound with respect to the extent of the contraction reaction in the control group, and the intensity of inhibition based thereon is shown in the following Tables 4 and 5 (Compound numbers in Tables 4 and 5 correspond to the Compound numbers in Table 1).

The subject of data set [1] is Ear Edema Caused by Arachidonic Acid. Nature of the data set: Suppressing effect on ear edema caused by arachidonic acid. It is filed as in vivo, ICR male mice. Conditions: Mus musculus, 1 h, thickness after one hour, read-out: Suppression rate (ear edema); for inhibition in vivo at 50 mg/kg: oral administration, one hour before inflammatory agent (2 mg arachidonic acid); for inhibition in vivo at 0.1 mg: topical, local application, 0.1 mg/auricle, 30 min before inflammatory agent (2 mg arachidonic acid). How it is done:
The thickness of auricles of ICR male mice of 6 week-age was measured by using a micrometer. On both sides of one of the auricles of each mouse, was applied 2 mg of arachidonic acid dissolved in acetone as the inflammatory agent to cause inflammation thereon. The thickness of the auricle after one hour of the application was measured and the difference between the thickness obtained and the thickness before the application was taken as the value of ear edema. The compound according to the present invention dissolved in ethanol or only ethanol as a control were orally administrated or applied localy. In the case of oral administration, 50 mg/kg of the compound according to the present invention was administrated one hour before the application of the inflammatory agent, and 0.1 mg/auricle was applied 30 min before the application in the case of local application.
The suppression rate of ear edema of the compound according to the present invention was calculated based on the ratio of the suppression to the value of ear edema in the control group and the results are shown in Tables 6 and 7 (Compound numbers in Tables 6 and 7 correspond to the Compound numbers in Table 1).
Further, benoxaprofen and NDGA were used as the comparison.

On the set-up of data set [2]: species or system ICR male mice. To be noted: mouse, in vivo, po, 2000 mg/kg. How it is done:
The compounds according to the present invention (Compound No. 44 in Table 1) suspended in an aqueous 1% tragacanth solution was orally administrated by 2000 mg/kg to 6 week-age ICR male mice.

For data set [3] the following is noted: literature; cited from earlier work.
Setting [4] is: 10^-5 M (final concentration), rat abdominal cells, calcium ionophore A-23187.
The mark [5] stands for this setting: rat abdominal cells, calcium ionophore A-23187.

For `c1ccc(OCCCOc2ccc(Cc3nc4ccccc4o3)cc2)cc1` [Compound 2, 2-[4-(3-phenoxy)propoxybenzyl]benzoxazole], the inhibition (usually the drop in the measured response relative to a control, in per cent) at 10 µM at lipoxygenase (setting [4]) is 80 to 100%. Besides, the inhibition at 1 µM at lipoxygenase (setting [5]) is 20 to 50%.
For `Clc1cc(Cc2nc3ccccc3o2)ccc1OCCCCOc1ccccc1` [Compound 44], the inhibition at 10 µM at lipoxygenase (setting [4]) is 80 to 100%. Moreover, the inhibition at 1 µM on lipoxygenase (setting [5]) is 50 to 80%. In addition, in data set [1], the inhibition in vivo at 50 mg/kg was found to be 80.7%. In data set [2], the Anatomic inspection entry is “no abnormality was observed”; the “Condition and body weight” value is given as “no change was recognized at all”.
With `CCCCOc1cccc(Cc2nc3ccccc3o2)c1` [Compound 71], on lipoxygenase (setting [4]), the inhibition at 10 µM is 80 to 100%. Further, the inhibition in vivo at 50 mg/kg in data set [1] is 77.9%.
For the compound `COCCCCOc1ccc(Cc2nc3ccccc3o2)cc1Cl` [Compound 51], the inhibition at 10 µM on lipoxygenase (setting [4]) is 80 to 100%. In addition, the inhibition at 1 µM on lipoxygenase (setting [5]) is 50 to 80%.
Turning to `CC#CCOc1cccc(Cl)c1Cc1nc2ccccc2o1` [Compound 100], the inhibition at 10 µM at lipoxygenase (setting [4]) was in the range of 80 to 100%. The inhibition at 1 µM at lipoxygenase (setting [5]) is 50 to 80%.
In the case of `Fc1ccc(OCCCCOc2ccc(Cc3nc4ccccc4o3)cc2)cc1` [Compound 15], the inhibition at 10 µM at lipoxygenase (setting [4]) is 50 to 80%. In addition, at lipoxygenase (setting [5]), the inhibition at 1 µM lay in the range of 20 to 50%.
For `CC#CCOc1ccc(Cc2nc3ccccc3o2)c(Cl)c1` [Compound 34], the inhibition at 10 µM at lipoxygenase (setting [4]) fell in the range of 50 to 80%. Also, the inhibition in vivo at 0.1 mg in data set [1] amounted to 42.9%.
For the compound `C#CCCCOc1ccc(Cl)cc1Cc1nc2ccccc2o1` [Compound 112], at lipoxygenase (setting [4]), the inhibition at 10 µM was 50 to 80%. For the same compound, the inhibition at 1 µM on lipoxygenase (setting [5]) is 20 to 50%.
Consider `C#CCCCOc1c(Cl)cccc1Cc1nc(-c2ccccc2)co1` [Compound 125], for which the inhibition in vivo at 0.1 mg in data set [1] came out at 41.7%.
Turning to `C#CCCCC#CCOc1ccccc1Cc1nc2ccccc2o1` [Compound 98], at lipoxygenase (setting [4]), the inhibition at 10 µM lay within 50 to 80%. In addition, in data set [1], the inhibition in vivo at 0.1 mg came out at 50.2%.
With `Cc1ccccc1OCCCCOc1ccc(Cc2nc3ccccc3o2)cc1` [Compound 10], on lipoxygenase (setting [4]), the inhibition at 10 µM is 50 to 80%. Besides, the inhibition at 1 µM on lipoxygenase (setting [5]) is 20 to 50%.
As to `CCCC#CCOc1ccc(Cc2nc3ccccc3o2)cc1` [Compound 37], the inhibition at 10 µM on lipoxygenase (setting [4]) was in the range of 80 to 100%. In addition, the inhibition at 1 µM on lipoxygenase (setting [5]) fell in the range of 20 to 50%. Moreover, the inhibition in vivo at 0.1 mg in data set [1] was determined as 42.1%.
Turning to `c1ccc(OCCCOc2ccc(Cc3nc4ccccc4s3)cc2)cc1` [Compound 1, 2-[4-(3-phenoxy)propoxybenzyl]benzothiazole], the inhibition at 10 µM at lipoxygenase (setting [4]) lay within 80 to 100%. The inhibition at 1 µM at lipoxygenase (setting [5]) is 20 to 50%.
`Clc1cc(OCCCCOc2ccccc2)ccc1Cc1nc2ccccc2o1` [Compound 6]: on lipoxygenase (setting [4]), the inhibition at 10 µM lay within 80 to 100%. The inhibition in vivo at 0.1 mg in data set [1] turned out to be 48.5%.
In the case of `Clc1ccc(OCCCCOc2ccc(Cc3nc4ccccc4o3)cc2Cl)cc1` [Compound 62], the inhibition at 10 µM at lipoxygenase (setting [4]) was 50 to 80%. Moreover, at lipoxygenase (setting [5]), the inhibition at 1 µM was in the range of 20 to 50%. Moreover, the inhibition in vivo at 0.1 mg in data set [1] was determined as 32.9%.
Take `CC#CCOc1cccc(Cc2nc(-c3ccccc3)co2)c1` [Compound 129]: on lipoxygenase (setting [4]), the inhibition at 10 µM was in the range of 50 to 80%.
With `c1ccc(OCCCCCCOc2ccc(Cc3nc4ccccc4o3)cc2)cc1` [Compound 5], at lipoxygenase (setting [4]), the inhibition at 10 µM is 80 to 100%. In addition, the inhibition at 1 µM at lipoxygenase (setting [5]) was in the range of 20 to 50%.
For `OCC#CCCCC#CCCCOc1ccc(Cc2nc3ccccc3o2)cc1Cl` [Compound 57], at lipoxygenase (setting [4]), the inhibition at 10 µM is 80 to 100%. In addition, the inhibition in vivo at 0.1 mg in data set [1] turned out to be 49.8%.
Take `C(#CCOc1ccccc1Cc1nc2ccccc2o1)CCCC#Cc1ccccc1` [Compound 90]: the inhibition at 10 µM at lipoxygenase (setting [4]) lay in the range of 80 to 100%. The inhibition at 1 µM on lipoxygenase (setting [5]) was in the range of 20 to 50%.
On to `CC(Cc1ccc(O)c(O)c1)C(C)Cc1ccc(O)c(O)c1` (centres unmarked) [NDGA, Nordihydroguaiaretic acid, reference compound], for which the inhibition at 10 µM on lipoxygenase lay in the range of 0 to 20%. For the same compound, in data set [1], the inhibition in vivo at 0.1 mg turned out to be 18.2%.
With `CC(C(=O)O)c1ccc2oc(-c3ccc(Cl)cc3)nc2c1` (centres unmarked) [Benoxaprofen, benoxaprofen], the inhibition in vivo at 50 mg/kg in data set [1] stood at 15.3%. Further, in data set [3], the adverse effect entry is recorded as “grave adverse effect” and the effect on psoriasis entry was “effective to psoriasis”.
As for `CC#CCOc1cccc(Cc2nc3ccccc3o2)c1` [Compound 73], the inhibition at 10 µM at lipoxygenase (setting [4]) lay within 80 to 100%. Also, the inhibition at 1 µM at lipoxygenase (setting [5]) fell in the range of 20 to 50%. In addition, in data set [1], the inhibition in vivo at 50 mg/kg worked out at 85.1%.
For `CC#CCOc1ccccc1Cc1nc2ccccc2o1` [Compound 96], the inhibition at 10 µM at lipoxygenase (setting [4]) was in the range of 80 to 100%. For the same compound, the inhibition in vivo at 50 mg/kg in data set [1] turned out to be 71.8%.
For `c1ccc(COCCCOc2ccc(Cc3nc4ccccc4o3)cc2)cc1` [Compound 19], the inhibition at 10 µM on lipoxygenase (setting [4]) lay within 80 to 100%. The inhibition at 1 µM on lipoxygenase (setting [5]) was 50 to 80%.
As for `Clc1cc(Cc2nc3ccccc3o2)ccc1OCCCC#Cc1ccccc1` [Compound 47], the inhibition at 10 µM on lipoxygenase (setting [4]) lay in the range of 80 to 100%.
As to `COCCCCOc1ccc(Cc2nc3ccccc3o2)cc1` [Compound 25], at lipoxygenase (setting [4]), the inhibition at 10 µM lay within 50 to 80%. For the same compound, the inhibition at 1 µM on lipoxygenase (setting [5]) lay within 20 to 50%.
Taken in the same sequence, the figures for `Clc1ccccc1OCCCCOc1ccc(Cc2nc3ccccc3o2)cc1` [Compound 7] were 50 to 80% and 20 to 50%.
In the same order, the values of `C(#Cc1ccccc1)CCCOc1ccc(Cc2nc3ccccc3o2)cc1` [Compound 29] are 80 to 100% and 20 to 50%.
Regarding `C(#Cc1ccccc1)CCCOc1ccccc1Cc1nc2ccccc2o1` [Compound 89], at lipoxygenase (setting [4]), the inhibition at 10 µM lay within 50 to 80%. Moreover, at lipoxygenase (setting [5]), the inhibition at 1 µM fell in the range of 20 to 50%.
